Experimental data published in paper PMC9794833, “Ligand recognition and activation of neuromedin U receptor 2” (Nature Communications, 2022).
“And” between values parts separate entries of the source, which are not always exact repeats. Equal entries are not always repeated. Where a SMILES comes first, the peptide text is derived from it. [ ]: non-standard residue; d: D form. The star is where a group is joined. αMeW = C[C@](N)(Cc1c[nH]c2ccccc12)C(=O)O; Acetyl(2-thienyl) = O=C(Cc1cccs1)*

Legend:
[1] = target: T1, NMU2 N306Q (Homo sapiens, UniProt Q9GZQ4, N306Q); assay: TRUPATH assay, NMU2 mutant N306Q; type: cell-based
T1 construct: HA signal peptide (N); expressed in transfected cells; host or cells: HEK 293F
T1 sequence (Q9GZQ4 whole entry N306Q): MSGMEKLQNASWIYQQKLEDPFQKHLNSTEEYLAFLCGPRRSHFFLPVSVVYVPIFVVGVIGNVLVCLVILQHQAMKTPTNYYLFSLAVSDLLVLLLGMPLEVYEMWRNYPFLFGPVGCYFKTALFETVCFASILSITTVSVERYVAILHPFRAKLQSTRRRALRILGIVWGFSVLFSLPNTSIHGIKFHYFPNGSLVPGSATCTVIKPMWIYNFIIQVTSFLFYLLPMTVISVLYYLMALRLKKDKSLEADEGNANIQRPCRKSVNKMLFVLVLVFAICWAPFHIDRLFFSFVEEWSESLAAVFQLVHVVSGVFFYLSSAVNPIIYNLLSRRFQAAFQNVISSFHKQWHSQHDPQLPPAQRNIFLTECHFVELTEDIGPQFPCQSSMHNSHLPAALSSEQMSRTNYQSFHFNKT
Experimental: (§1) The plasmids of Gαi1, Gβ3, and Gγ9 used for the TRUPATH assay were purchased from Addgene (TRUPATH Kit, #1000000163). NMU2 constructs of WT and mutants were constructed into a PTT5 vector (Invitrogen) with an N-terminal HA signal peptide followed by a Flag tag. HEK 293F cells were transiently transfected with WT or mutants of NMU2, Gαi1, Gβ3, and Gγ9 at an […] ratio of 4:1:1:1 with a total of 3500 ng plasmid DNA using a transfection reagent (PEI MAX 2000, Polysciences) and cultivated at 37 °C with 5 % CO2. Cells were collected after 48-h transfection. The expression level of the receptor was measured by incubating 10 μl cells with 15 μl TBS buffer supplemented with 4% bovine serum albumin, 20% (v/v) viability staining solution7-AAD (Invitrogen, Cat#00-6993-50), and ANTI-FLAG M2-FITC antibody (Sigma, F4049; 1:100 diluted by TBS) at 4 °C for 20 min. After incubation, 175 μl TBS buffer was added, and the fluorescence signal on the cell surface was detected by an FCM (flow cytometry) reader (Millipore). The cells were diluted with 1× HBSS (Hank’s balanced salt solution) balanced buffer supplemented with 25 mM HEPES, pH 7.4, and seeded onto the 96-well opaque cell culture plates (Beyotime) at a density of 18,000 cells per well by 60 μl. Freshly prepared 50 μM coelenterazine 400a (Nanolight Technologies) was added into the well by 10 μl. After a 5 min equilibration time in the darkness, plates were then read in a Synerg^TM H1 microplate reader (BioTek) with excitation at 395 nm and emission at 410 and 515 nm by serially three times. Then, 30 μl of 3.3× agonists were added into the wells with a gradient final concentration from 10^−4–10^−13 M. Plates were read immediately again by serially five times. Data were processed and analyzed following the method in the literature by using GraphPad Prism 8.0.

[2] = target: T2, NMU2 (Homo sapiens, UniProt Q9GZQ4); assay: TRUPATH Gαi1βγ biosensor assay, WT NMU2; type: cell-based; conditions: WT; for CPN 267–induced G protein activation of NMU2: single replicates
T2 construct: HA signal peptide (N); expressed in transfected cells; host or cells: HEK 293F
T2 sequence (Q9GZQ4 whole entry): as the sequence (Q9GZQ4 whole entry N306Q) above, with Q306N counted along it
Experimental: as §1

[3] = target: T3, NMU2 A302H (Homo sapiens, UniProt Q9GZQ4, A302H); assay: TRUPATH assay, NMU2 mutant A302H; type: cell-based; conditions: Log [CPN 267] M -13
T3 construct: HA signal peptide (N); expressed in transfected cells; host or cells: HEK 293F
T3 sequence (Q9GZQ4 whole entry A302H): as the sequence (Q9GZQ4 whole entry N306Q) above, with A302H, Q306N counted along it
Experimental: as §1

[4] = target: T4, NMU2 H43E (Homo sapiens, UniProt Q9GZQ4, H43E); assay: TRUPATH assay, NMU2 mutant H43E; type: cell-based; conditions: for increase of Emax: H43E vs WT, TRUPATH; for CPN 267–induced G protein activation of NMU2: single replicates
T4 construct: HA signal peptide (N); expressed in transfected cells; host or cells: HEK 293F
T4 sequence (Q9GZQ4 whole entry H43E): as the sequence (Q9GZQ4 whole entry N306Q) above, with H43E, Q306N counted along it
Experimental: as §1

[5] = test system: NMU1; set-up: method as in PMID 24999562, PMID 25815150, PMID 28548497; conditions: cited from earlier work

C[C@@](Cc1c[nH]c2ccccc12)(NC(=O)[C@H](Cc1c[nH]c2ccccc12)NC(=O)Cc1cccs1)C(=O)N[C@@H](CCCNC(=N)N)C(=O)N1CCC[C@H]1C(=O)N[C@@H](CCCNC(=N)N)C(=O)N[C@@H](CC(N)=O)C(N)=O [CPN 267] ({Acetyl(2-thienyl)}-W[αMeW]RPRN-NH2; N-terminus assumed)
EC50 ratio EC50(mutant)/EC50(WT) [1]: 0.12
CPN 267–induced G protein activation of NMU2 ([1]; Log [CPN 267] M -4, single replicates): -0.07238 and -0.04006 and -0.03184
CPN 267–induced G protein activation of NMU2 ([1]; Log [CPN 267] M -5, single replicates): -0.01962 and -0.06076 and -0.0468 and -0.06887
CPN 267–induced G protein activation of NMU2 ([1]; Log [CPN 267] M -6, single replicates): -0.04834 and -0.04745
CPN 267 dose-response point on NMU2 (TRUPATH, raw signal) ([1]; Log [CPN 267] M -13): 0
enhanced potency compared to the WT receptor ([1]; TRUPATH): about 8 fold
EC50 ratio EC50(mutant)/EC50(WT) [2]: 1
CPN 267–induced G protein activation of NMU2 ([2]; Log [CPN 267] M -5): -0.03587 and 0.007188 and -0.01399 and -0.02335
CPN 267–induced G protein activation of NMU2 ([2]; Log [CPN 267] M -6): -0.02292 and -0.01831 and -0.0188 and -0.02168 and -0.03547 and -0.01761 and -0.003911 and -0.0252 and -0.02032
CPN 267–induced G protein activation of NMU2 ([2]; Log [CPN 267] M -7): -0.006001 and -0.01343 and -0.0256 and -0.004694 and 0.01387 and -0.02539 and 0.01253 and -0.01403 and -0.001793
CPN 267–induced G protein activation of NMU2 ([2]; Log [CPN 267] M -8): 0.003495 and -0.002501 and 0.007246 and 0.0002105 and -0.01007 and 0.01037 and -0.008456 and 0.001798
CPN 267–induced G protein activation of NMU2 ([2]; Log [CPN 267] M -9): -0.002278 and 0.02355 and -0.003166 and -0.00428 and 0.01286 and -0.01712 and 0.00907 and -0.02718 and 0.02569
CPN 267–induced G protein activation of NMU2 ([2]; Log [CPN 267] M -10): 0.01327 and -0.00722 and 0.003132 and -0.01489 and -0.004805 and 0.01086 and 0.01655 and -0.01176
CPN 267–induced G protein activation of NMU2 ([2]; Log [CPN 267] M -11): 0.01288 and -0.01868 and -0.005647 and 0.02201 and -0.02258 and -0.03283 and 0 (3×)
CPN 267–induced G protein activation of NMU2 ([2]; Log [CPN 267] M -12): 0.001564 and -0.001695 and 0.03559 and -0.01351 and 0.02492 and 0
CPN 267 dose-response point on NMU2 (TRUPATH, raw signal) ([2]; Log [CPN 267] M -13): 0
CPN 267–induced G protein activation of NMU2 ([2]; Log [CPN 267] M -13): 0
CPN 267 dose-response point on NMU2 (TRUPATH, raw signal) [3]: 0
EC50 ratio EC50(mutant)/EC50(WT) ([4]; H43E): 2
increase of Emax [4]: twofold
increase of Emax ([4]; listed as CPN267): 2 fold
CPN 267 dose-response point on NMU2 (TRUPATH, raw signal) ([4]; H43E, Log [CPN 267] M -4): -0.04819
CPN 267–induced G protein activation of NMU2 ([4]; H43E, Log [CPN 267] M -4): -0.04819
CPN 267–induced G protein activation of NMU2 ([4]; H43E, Log [CPN 267] M -5): -0.05461 and -0.04902
CPN 267–induced G protein activation of NMU2 ([4]; H43E, Log [CPN 267] M -6): -0.04442 and -0.04638 and -0.03015
CPN 267–induced G protein activation of NMU2 ([4]; H43E, Log [CPN 267] M -7): -0.01102 and -0.01529 and -0.01284
CPN 267–induced G protein activation of NMU2 ([4]; H43E, Log [CPN 267] M -8): 0.004556 and -0.024 and -0.02479
CPN 267–induced G protein activation of NMU2 ([4]; H43E, Log [CPN 267] M -9): 0.01023 and -0.003075 and 0.003569
CPN 267–induced G protein activation of NMU2 ([4]; H43E, Log [CPN 267] M -10): 0.0005609 and -0.01099 and -0.03027
CPN 267–induced G protein activation of NMU2 ([4]; H43E, Log [CPN 267] M -11): 0.0192 and 0.004402 and 0
CPN 267–induced G protein activation of NMU2 ([4]; H43E, Log [CPN 267] M -12): 0.009217 and 0
CPN 267 dose-response point on NMU2 (TRUPATH, raw signal) ([4]; H43E, Log [CPN 267] M -13): 0
CPN 267–induced G protein activation of NMU2 ([4]; H43E, Log [CPN 267] M -13): 0
selectivity over NMU2 ([5]; NMU1 over NMU2): 1000 fold
EC50 ([5]; agonistic activity for NMU1): 0.25 nM
